Measurements taken from patent publication US8058242B2, “Chimeric proteins with natriuretic activity” (The University of Queensland, priority 2004, dated 2011).

Key:
[1] = test system: denuded aortic rings, GC A receptor; assay: Relaxation of noradrenaline constricted endothelium-denuded aortic rings (Example 11); set-up: species or system rat; details: GC-A mediated
Experimental: Male Sprague Dawley rats were killed and the descending thoracic aorta rapidly removed and flushed with physiological solution. After being cleared of adhering fat and connective tissue, 5 mm rings were mounted under 10 g resting tension, between two stainless steel hooks, in organ baths (37° C.) containing carbogenated (95% O2 and 5% CO2) physiological salt solution of the following composition (mM): NaCl, 118.4; NaHCO3, 25; glucose, 11; KCl, 4.7; MgSO4, 1.2; KH2PO4, 1.2 and CaCl2, 2.5. The lower hook was attached to a tissue holder and the upper hook to a force displacement transducer (Grass FTO3). Where indicated endothelial cells were removed by gentle rubbing of the intimal surface with a wire. To confirm the presence or absence of endothelial cells, tissues were precontracted with a sub-maximal concentration of phenylephrine (0.3 μM) and the response to acetylcholine (ACh, 10 μM) observed. Ach-induced relaxation greater than 80% of maximum indicated the presence of endothelium; whereas Ach-induced relaxation less than 10% indicated the absence of endothelium. Ring preparations under resting tension were conditioned by two contraction/relaxation cycles with 40 mM KCl, contracted by a third application of 40 mM KCl and then relaxed with different doses of the venom peptides. Responses were expressed as a percentage relaxation of the precontraction by KCl.
In addition to the peptides tested in example 3, a series of 13 analogs corresponding to the 2a, 2b and 2c grouping of peptides were examined for their ability to dilate noradrenaline constricted aortic rings. The degree of constriction was expressed as a percentage of the KCl induced constriction. The aortic rings were prepared in a manner similar to the method described in example 3. […]. In each case there were at least 3 separate aortic rings tested per peptide and all were denuded of endothelium to ensure responses were confined to the GC A receptor.

conscious rabbits = assay: Blood pressure and heart rate in conscious rabbits, intravenous infusion dose-response (Example 8)
[2] = biological target: T1, Natriuretic Peptide Receptor-A (NPR-A) signaling in MDCK cells (Canis lupus familiaris, UniProt A0A8I3MHU3); assay type: cell-based, canine; details: stimulation of cGMP accumulation in MDCK cells
T1 sequence (A0A8I3MHU3 32-1060): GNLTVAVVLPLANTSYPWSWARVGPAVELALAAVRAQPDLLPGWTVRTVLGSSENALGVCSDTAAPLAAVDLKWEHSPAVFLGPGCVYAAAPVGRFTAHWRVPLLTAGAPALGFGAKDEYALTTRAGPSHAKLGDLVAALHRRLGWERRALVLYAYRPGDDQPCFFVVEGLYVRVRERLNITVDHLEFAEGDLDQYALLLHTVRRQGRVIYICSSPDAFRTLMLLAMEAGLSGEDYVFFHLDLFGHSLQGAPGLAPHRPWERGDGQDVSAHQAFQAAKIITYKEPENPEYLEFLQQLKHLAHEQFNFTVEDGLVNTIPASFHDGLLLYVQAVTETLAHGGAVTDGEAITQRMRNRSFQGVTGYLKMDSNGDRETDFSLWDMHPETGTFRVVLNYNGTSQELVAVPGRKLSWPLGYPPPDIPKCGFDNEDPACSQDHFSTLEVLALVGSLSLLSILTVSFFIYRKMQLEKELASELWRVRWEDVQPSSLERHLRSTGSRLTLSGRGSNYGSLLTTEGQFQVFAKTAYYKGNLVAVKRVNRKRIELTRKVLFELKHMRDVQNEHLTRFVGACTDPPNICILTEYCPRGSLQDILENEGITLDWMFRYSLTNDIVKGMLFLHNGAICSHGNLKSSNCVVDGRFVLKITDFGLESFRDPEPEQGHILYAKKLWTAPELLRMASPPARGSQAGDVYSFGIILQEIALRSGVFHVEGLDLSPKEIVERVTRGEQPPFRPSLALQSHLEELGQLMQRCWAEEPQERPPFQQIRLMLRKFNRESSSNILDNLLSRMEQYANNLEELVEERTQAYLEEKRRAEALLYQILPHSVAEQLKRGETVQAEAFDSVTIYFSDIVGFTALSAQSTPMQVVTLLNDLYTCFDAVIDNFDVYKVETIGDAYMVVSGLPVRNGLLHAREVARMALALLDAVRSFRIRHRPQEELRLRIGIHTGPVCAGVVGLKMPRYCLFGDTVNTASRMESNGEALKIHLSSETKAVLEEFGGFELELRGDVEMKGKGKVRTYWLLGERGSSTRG

normal rats = assay: Hemodynamic parameters in normal anesthetized rats (Example 10)
[3] = test system: rats with chronic heart failure; assay: Rat model of chronic heart failure, left coronary artery occlusion, anesthetized (Example 10); details: HF rats
Plasmin = biological target: T2, Plasmin (Homo sapiens, UniProt P00747); assay: Stability to enzymatic degradation by plasmin (Examples 7, 16); assay type: in vitro ADME; details: plasmin, 37° C.
T2 construct: with 500 ng Endopeptidase (NEP) or 10 μg Plasmin
Experimental: The incubation buffer contained 100 mM Tris/HCl and 150 mM NaCl and the pH was adjusted to 7.2-7.4. In each assay, 100 μl of peptide [500 μM] was incubated with 300 μl buffer (with 500 ng Endopeptidase (NEP) or 10 μg Plasmin) at 37° C. 50 μl aliquots were taken at times 5 min, 30 min, 60 min, 90 min, 180 min and 24 h. The reaction was quenched by heating to 100° C. for 4 min and the remaining peptide concentrations measured by RP-HPLC. Note that the levels of Plasmin required to degrade these peptides was several thousands time the levels present in human plasma.
The stability of TDT and was investigated using the same enzymatic degradation assays (NEP, plasmin, pepsin) disclosed in Example 7. […] It is also evident that the increased NEP stability cannot be explained by the length of the tail region alone as the NEP cleavage site residues at the N-terminal end of the loop region.

[4] = after a 2 hour recovery period, Table 10B

T2 sequence (P00747 97-580 partner limits assumed, species assumed): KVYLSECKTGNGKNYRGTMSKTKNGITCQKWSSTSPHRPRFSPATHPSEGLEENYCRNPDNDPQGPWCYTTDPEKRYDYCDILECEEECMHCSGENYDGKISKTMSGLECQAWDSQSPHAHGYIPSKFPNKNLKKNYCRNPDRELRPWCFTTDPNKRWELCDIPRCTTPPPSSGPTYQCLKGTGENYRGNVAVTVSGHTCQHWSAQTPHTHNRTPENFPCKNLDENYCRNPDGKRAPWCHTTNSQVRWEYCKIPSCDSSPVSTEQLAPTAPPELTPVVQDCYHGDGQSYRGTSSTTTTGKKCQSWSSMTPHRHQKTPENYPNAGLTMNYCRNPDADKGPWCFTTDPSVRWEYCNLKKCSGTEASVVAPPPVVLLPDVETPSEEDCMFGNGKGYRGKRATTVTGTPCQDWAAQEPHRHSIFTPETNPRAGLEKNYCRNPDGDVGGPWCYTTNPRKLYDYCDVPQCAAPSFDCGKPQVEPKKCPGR
T2 sequence (P00747 581-810 limits assumed, species assumed): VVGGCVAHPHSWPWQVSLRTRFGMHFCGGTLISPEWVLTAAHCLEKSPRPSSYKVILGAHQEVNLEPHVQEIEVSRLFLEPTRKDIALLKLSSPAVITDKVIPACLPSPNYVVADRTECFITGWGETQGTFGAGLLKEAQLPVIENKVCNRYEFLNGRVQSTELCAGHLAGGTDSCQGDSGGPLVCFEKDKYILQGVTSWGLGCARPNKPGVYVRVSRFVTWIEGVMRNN

## SDSKISKGCFGFPLDRIGSVSGLGCNRIMQNPPKKFSGE (A portion of a natriuretic peptide) [TNPc K7S6]
[1]
  Mean relaxation SEM of denuded aortic rings expressed as % of KCl response: 43.8 ± 4.3%
Conscious rabbits; 2 hours after infusion
  recovery of MAP, in words: did not recover after 2 hours
Conscious rabbits; Table 10B
  MAP at final dose: 60.3 mm Hg
Conscious rabbits; [4]
  Recovery (MAP): 64.2 mm Hg
  Recovery Delta SED (MAP): 3.9 ± 2.6 mm Hg
Conscious rabbits; final dose, Table 10B, groups 2B and 2C
  Treatment Effect, change of mean blood pressure during the infusion: −12.6 mm Hg

## CC[C@H](C)[C@@H]1NC(=O)[C@H](CCCNC(=N)N)NC(=O)[C@H](CC(=O)O)NC(=O)[C@H](CCSC)NC(=O)[C@H](CCCCN)NC(=O)[C@H](CCCNC(=N)N)NC(=O)CNC(=O)[C@H](Cc2ccccc2)NC(=O)[C@@H](NC(=O)CNC(=O)[C@H](CO)NC(=O)CNC(=O)[C@H](CCC(N)=O)NC(=O)[C@@H](NC(=O)[C@H](CCSC)NC(=O)[C@H](CCCCN)NC(=O)[C@@H]2CCCN2C(=O)[C@@H](N)CO)C(C)C)CSSC[C@@H](C(=O)N[C@@H](CCCCN)C(=O)N[C@H](C(=O)N[C@@H](CC(C)C)C(=O)N[C@@H](CCCNC(=N)N)C(=O)N[C@@H](CCCNC(=N)N)C(=O)N[C@@H](Cc2c[nH]cn2)C(=O)O)C(C)C)NC(=O)CNC(=O)[C@H](CC(C)C)NC(=O)CNC(=O)[C@H](CO)NC(=O)[C@H](CO)NC(=O)[C@H](CO)NC(=O)[C@H](CO)NC1=O [hBNP]
[2]
  −Log10 EC50 (pEC50) ± Standard Error: 9.165 ± 0.1039
[2]; read-out: EC50 (M) ± Standard Error
  EC50: 9.07e-10 M
Normal rats; 50 pmol/kg/min, 30 min
  Blood Flow, mean change from control: -1.9 mL/min
  Conductance, mean change from control: −1.1 ml/min/mmHg
  Diastolic LVP, mean change from control: −0.1 mmHg
  HCT, mean change from control: 1.0%
  HR, mean change from control: −16.6 BPM
  Mean BP, mean change from control: −6.4 mmHg
  Urine Flow, mean change from control: 0.2 mL/h
Normal rats; 100 pmol/kg/min, 30 min
  Blood Flow, mean change from control: -2.6 mL/min
  Conductance, mean change from control: −1.2 ml/min/mmHg
  Diastolic LVP, mean change from control: 0.1 mmHg
  HCT, mean change from control: 3.5%
  HR, mean change from control: −5.3 BPM
  Mean BP, mean change from control: −14.9 mmHg
  Urine Flow, mean change from control: 0.7 mL/h
Normal rats; Recovery
  Blood Flow, mean change from control: -3.6 mL/min
  Conductance, mean change from control: −1.3 ml/min/mmHg
  Diastolic LVP, mean change from control: −0.2 mmHg
  HCT, mean change from control: −0.3%
  HR, mean change from control: 1.3 BPM
  Mean BP, mean change from control: −14.1 mmHg
  Urine Flow, mean change from control: 0.6 mL/h
Normal rats; average of the two doses
  Blood Flow, Average drug response SED: -2.2 ± 1.0 mL/min
  Conductance, Average drug response SED: −1.1 ± 0.4 ml/min/mmHg
  Diastolic LVP, Average drug response SED: 0.0 ± 0.3 mmHg
  HCT, Average drug response SED: 2.2 ± 0.6%
  HR, Average drug response SED: −10.9 ± 7.1 BPM
  Mean BP, Average drug response SED: −10.7 ± 4.7 mmHg
  Urine Flow, Average drug response SED: 0.5 ± 0.4 mL/h
[3]; 50 pmol/kg/min, 30 min
  Blood Flow, mean change from control: -1.6 mL/min
  Conductance, mean change from control: −0.3 ml/min/mmHg
  Diastolic LVP, mean change from control: −0.7 mmHg
  HCT, mean change from control: 1.9%
  HR, mean change from control: −12.3 bpm
  Mean BP, mean change from control: −9.6 mmHg
  Urine Flow, mean change from control: 0.8 mL/h
[3]; 100 pmol/kg/min, 30 min
  Blood Flow, mean change from control: -2.9 mL/min
  Conductance, mean change from control: 0.2 ml/min/mmHg
  Diastolic LVP, mean change from control: −1.2 mmHg
  HCT, mean change from control: 0.3%
  HR, mean change from control: −40.5 bpm
  Mean BP, mean change from control: −26.5 mmHg
  Urine Flow, mean change from control: 0.7 mL/h
[3]; Recovery
  Blood Flow, mean change from control: -1.0 mL/min
  Conductance, mean change from control: 0.5 ml/min/mmHg
  Diastolic LVP, mean change from control: 1.9 mmHg
  HCT, mean change from control: −1.3%
  HR, mean change from control: −41.7 bpm
  Mean BP, mean change from control: −14.6 mmHg
  Urine Flow, mean change from control: -0.2 mL/h
[3]; average of the two doses
  Blood Flow, Average drug response SED: -2.2 ± 0.4 mL/min
  Conductance, Average drug response SED: −0.1 ± 0.3 ml/min/mmHg
  Diastolic LVP, Average drug response SED: −1.0±1.0 mmHg
  HCT, Average drug response SED: 1.1 ± 0.8%
  HR, Average drug response SED: −26.4 ± 23.0 bpm
  Mean BP, Average drug response SED: −18.1±6.3 mmHg
  Urine Flow, Average drug response SED: 0.7 ± 0.3 mL/h
Conscious rabbits; bolus injection of 0.24 mg/kg TNPc or equivalent molar dose of BNP
  time taken to recover to 50% of the peak response: 80 min
Plasmin; plasmin in Tris/HCl-NaCl buffer, read-out: HalfLife in plasmin
  half-life at 125 μM: 13.1 min
Plasmin
  K (one phase exponential decay, best fit values): 0.053
  PLATEAU (one phase exponential decay, best fit values): 0.03403
  SPAN (one phase exponential decay, best fit values): 0.9926
